Source: the supplement of paper PMC10307832

Experiments:
Test in all cases: relative viability (nuclei count vs DMSO), 5 days (fraction); higher = more cells survive
R406 = compound: COc1cc(Nc2ncc(F)c(Nc3ccc4c(n3)NC(=O)C(C)(C)O4)n2)cc(OC)c1OC [R406]
Summary of the method: (§1)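 Five library-drug doses, separated by factors of √10, were pinned into 1536-well plates holding lung cancer cell lines after an overnight stay at 37 °C. Cells were fixed, permeabilised and Hoechst-stained in one step after 5 days without medium change, then imaged at 4×. Viability compares treated-well with vehicle-well nuclei, counted in MetaXpress, as a median across plates. Passing plates had control CV below 25% and at least one doubling.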

Daporinad = compound: O=C(/C=C/c1cccnc1)NCCCCC1CCN(C(=O)c2ccccc2)CC1 [Daporinad]
Summary of the method: as §1

Daporinad + Navitoclax = compound: O=C(/C=C/c1cccnc1)NCCCCC1CCN(C(=O)c2ccccc2)CC1 [Daporinad] + CC1(C)CCC(c2ccc(Cl)cc2)=C(CN2CCN(c3ccc(C(=O)NS(=O)(=O)c4ccc(N[C@H](CCN5CCOCC5)CSc5ccccc5)c(S(=O)(=O)C(F)(F)F)c4)cc3)CC2)C1 [Navitoclax] (partner 0.5 µM)
Summary of the method: (§2)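 Lung cancer cell lines in 1536-well plates got either a single drug or a fixed anchor-drug dose together with five library-drug doses (not always all listed) in √10 steps, by pin tool, on the day after seeding. Nuclei were counted after 5 days, and relative viability is the treated-to-vehicle ratio of nuclei counts. Values are medians of duplicate plates.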

R406 + Trametinib = compound: COc1cc(Nc2ncc(F)c(Nc3ccc4c(n3)NC(=O)C(C)(C)O4)n2)cc(OC)c1OC [R406] + CC(=O)Nc1cccc(-n2c(=O)n(C3CC3)c(=O)c3c(Nc4ccc(I)cc4F)n(C)c(=O)c(C)c32)c1 [Trametinib] (partner 0.02 µM)
Summary of the method: as §2

| Cell Line | relative viability (R406; 0.08 µM) | relative viability (R406; 0.253 µM) | relative viability (R406; 0.8 µM) | relative viability (R406; 2.53 µM) | relative viability (R406; 8 µM) | relative viability (Daporinad; 0.0005 µM) | relative viability (Daporinad; 0.001581 µM) | relative viability (Daporinad; 0.005 µM) | relative viability (Daporinad; 0.01581 µM) | relative viability (Daporinad + Navitoclax; first compound 0.0005 µM) | relative viability (Daporinad + Navitoclax; first compound 0.001581 µM) | relative viability (Daporinad + Navitoclax; first compound 0.005 µM) | relative viability (Daporinad + Navitoclax; first compound 0.01581 µM) | relative viability (R406 + Trametinib; first compound 0.08 µM) | relative viability (R406 + Trametinib; first compound 0.253 µM) | relative viability (R406 + Trametinib; first compound 0.8 µM) | relative viability (R406 + Trametinib; first compound 2.53 µM) | relative viability (R406 + Trametinib; first compound 8 µM) |
| --- | --- | --- | --- | --- | --- | --- | --- | --- | --- | --- | --- | --- | --- | --- | --- | --- | --- | --- |
| HCC-366 | 1 | 1.1 | 1.03 | 0.432 | 0.565 | 1.04 | 1.01 | 1.02 | 1.03 | 0.993 | 1.02 | 1.17 | 1.06 | 0.342 | 0.411 | 0.42 | 0.234 | 0.0517 |
| HCC-827 | 1.09 | 1.07 | 1.1 | 0.903 | 0.672 | 1.02 | 1.06 | 1.03 | 1.1 | 1.12 | 1.03 | 1.05 | 1.08 | 0.564 | 0.578 | 0.517 | 0.399 | 0.383 |
| HOP-62 | 0.998 | 1.16 | 0.97 | 1.04 | 1.09 | 0.94 | 1.08 | 1.03 | 0.491 | 1.06 | 0.975 | 0.943 | 0.404 | 0.379 | 0.388 | 0.427 | 0.37 | 0.339 |
| IA-LM | 1.07 | 1.19 | 0.957 | 1.05 | 0.913 | 0.888 | 0.896 | 0.968 | 0.859 | 0.733 | 0.809 | 0.772 | 0.599 |  |  |  |  |  |
| LC-2-ad | 0.965 | 0.987 | 1.04 | 0.539 | 0.312 | 0.934 | 1.1 | 1.03 | 0.957 | 0.43 | 0.544 | 0.553 | 0.393 | 0.912 | 0.907 | 0.971 | 0.465 | 0.334 |
| LCLC-97TM1 | 0.885 | 1.18 | 0.964 | 0.804 | 0.632 | 0.948 | 1.15 | 1.07 | 0.941 | 0.365 | 0.506 | 0.37 | 0.571 | 0.218 | 0.23 | 0.226 | 0.174 | 0.194 |
| LCLC-103H | 0.889 | 1.04 | 0.952 | 0.84 | 0.579 | 0.928 | 1.16 | 1.04 | 1 |  |  |  |  | 0.66 | 0.675 | 0.672 | 0.691 | 0.604 |
| LK-2 | 0.86 | 1.22 | 1.09 | 0.682 | 0.431 | 0.909 | 1.18 | 0.781 | 0.283 | 0.865 | 1.04 | 0.583 | 0.393 | 0.675 | 1 | 0.718 | 0.706 | 0.447 |
| LOU-NH91 | 0.916 | 0.963 | 0.928 | 0.512 | 0.576 | 0.996 | 1.05 | 1.14 | 1.24 | 0.678 | 0.851 | 0.928 | 1.24 | 0.804 | 0.8 | 0.759 | 0.621 | 0.549 |
| LU99A | 0.984 | 0.983 | 1.22 | 0.796 | 0.824 | 0.975 | 1.09 | 1.08 | 0.966 | 0.71 | 0.833 | 0.94 | 0.931 | 0.532 | 0.522 | 0.56 | 0.458 | 0.358 |
| NCI-H358 | 0.935 | 1.04 | 1.03 | 0.339 | 0.246 | 0.877 | 0.929 | 1.03 | 1.06 |  |  |  |  | 0.131 | 0.144 | 0.14 | 0.0877 | 0.103 |
| NCI-H522 | 0.889 | 1.1 | 1.13 | 0.78 | 0.617 | 1.04 | 0.931 | 1.06 | 0.738 |  |  |  |  | 0.779 | 0.917 | 0.787 | 0.746 | 0.599 |
| NCI-H650 | 0.895 | 1.12 | 1 | 0.791 | 0.653 | 0.899 | 0.953 | 1.05 | 1.01 |  |  |  |  | 0.949 | 1.06 | 1 | 0.818 | 0.819 |
| NCI-H661 | 0.888 | 0.947 | 1.01 | 0.967 | 0.649 | 1.01 | 0.982 | 0.72 | 0.605 |  |  |  |  | 0.561 | 0.604 | 0.57 | 0.489 | 0.366 |
| NCI-H1299 | 1 | 1.08 | 1.07 | 1.06 | 0.744 | 1.01 | 1.04 | 1.04 | 1.04 | 1.06 | 1.07 | 1.11 | 1.07 |  |  |  |  |  |
| NCI-H1563 | 0.904 | 0.971 | 1.01 | 0.928 | 0.539 | 1.07 | 0.995 | 0.983 | 0.904 |  |  |  |  |  |  |  |  |  |
| NCI-H1648 | 0.759 | 0.614 | 1.03 | 0.795 | 0.786 | 0.836 | 0.933 | 0.9 | 0.835 |  |  |  |  | 0.564 | 0.432 | 0.557 | 0.463 | 0.4 |
| NCI-H1703 | 0.966 | 0.924 | 1.21 | 0.238 | 0.172 | 1.03 | 1.2 | 1.2 | 0.934 | 1.16 | 1.2 | 0.816 | 0.335 |  |  |  |  |  |
| NCI-H2342 | 1 | 0.964 | 1.01 | 0.916 | 0.93 | 1.08 | 0.839 | 0.952 | 0.974 |  |  |  |  | 0.724 | 0.841 | 0.8 | 0.753 | 0.844 |
| SW 900 | 0.798 | 1.03 | 1.26 | 0.166 | 0.293 | 0.748 | 0.733 | 0.864 | 0.592 |  |  |  |  | 0.958 | 0.805 | 0.906 | 0.764 | 0.118 |
